Assay results as given in ChEMBL document CHEMBL4616632, “Discovery of Cyclic Boronic Acid QPX7728, an Ultrabroad-Spectrum Inhibitor of Serine and Metallo-β-lactamases” (J Med Chem, 2020).

Tests used:
[1] = tested on: Klebsiella pneumoniae; test: Inhibition of Klebsiella pneumoniae KP1054 VIM-1 assessed as minimum concentration of compound required to reduce the MIC of biapenem to 1 ug/ml
[2] = tested on: Escherichia coli; test: Inhibition of Escherichia coli ECM6625 SHV-5 assessed as minimum concentration of compound needed to reduce the MIC of aztreonam to 4 ug/ml
[3] = tested on: Escherichia coli; test: Inhibition of Escherichia coli ECM6619 TEM-10 assessed as minimum concentration of compound needed to reduce the MIC of aztreonam to 4 ug/ml
[4] = tested on: Enterobacter cloacae; test: Inhibition of Enterobacter cloacae ECL1002 AmpC assessed as minimum concentration of compound needed to reduce the MIC of aztreonam to 4 ug/ml
[5] = tested on: Escherichia coli; test: Inhibition of Escherichia coli KP308 SHV-5 assessed as minimum concentration of compound required to reduce the MIC of aztreonam to 4 ug/ml
[6] = target: Beta-lactamase OXA-23 (Acinetobacter baumannii) (UniProt Q9L4P2); test: Inhibition of Acinetobacter baumannii AB1054 OXA-23 assessed as minimum concentration of compound needed to reduce the MIC of meropenem to 8 ug/ml
Chain of Beta-lactamase OXA-23 (Acinetobacter baumannii) (Q9L4P2 whole entry): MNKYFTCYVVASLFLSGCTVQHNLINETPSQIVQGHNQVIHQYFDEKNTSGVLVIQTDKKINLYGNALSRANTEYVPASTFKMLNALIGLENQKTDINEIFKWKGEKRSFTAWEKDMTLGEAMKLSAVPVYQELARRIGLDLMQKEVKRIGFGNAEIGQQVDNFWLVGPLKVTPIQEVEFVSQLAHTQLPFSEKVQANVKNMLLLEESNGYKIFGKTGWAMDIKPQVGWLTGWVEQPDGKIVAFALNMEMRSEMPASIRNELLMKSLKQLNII

[7] = tested on: Acinetobacter baumannii; test: Inhibition of Acinetobacter baumannii AB1053 OXA-72 assessed as minimum concentration of compound needed to reduce the MIC of meropenem to 8 ug/ml
[8] = tested on: Pseudomonas aeruginosa; test: Inhibition of Pseudomonas aeruginosa PAM 2035 AmpC assessed as minimum concentration of compound needed to reduce the MIC of aztreonam to 4 ug/ml
[9] = tested on: Klebsiella pneumoniae; test: Inhibition of Klebsiella pneumoniae KP1160 IMP-26 assessed as minimum concentration of compound needed to reduce the MIC of meropenem to 1 ug/ml
[10] = tested on: Klebsiella pneumoniae; test: Inhibition of Klebsiella pneumoniae KP1009 CTX-M-15 assessed as minimum concentration of compound required to reduce the MIC of aztreonam to 4 ug/ml
[11] = tested on: Escherichia coli; test: Inhibition of Escherichia coli EC302 TEM-10 assessed as minimum concentration of compound needed to reduce the MIC of aztreonam to 4 ug/ml
[12] = target: Beta-lactamase (Klebsiella pneumoniae) (UniProt Q93LQ9); test: Inhibition of Klebsiella pneumoniae KP1004 KPC-2 assessed as minimum concentration of compound needed to reduce the MIC of aztreonam to 4 ug/ml
Chain of Beta-lactamase (Klebsiella pneumoniae) (Q93LQ9 as listed by the source): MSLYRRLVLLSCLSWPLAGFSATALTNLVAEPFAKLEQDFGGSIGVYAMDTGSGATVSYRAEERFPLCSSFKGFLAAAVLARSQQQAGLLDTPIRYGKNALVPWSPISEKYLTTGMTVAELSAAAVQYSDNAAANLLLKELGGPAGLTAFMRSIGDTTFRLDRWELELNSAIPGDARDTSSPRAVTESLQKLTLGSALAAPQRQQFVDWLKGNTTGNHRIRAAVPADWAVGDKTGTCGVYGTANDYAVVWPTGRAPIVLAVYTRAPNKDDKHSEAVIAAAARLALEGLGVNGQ

[13] = tested on: Klebsiella pneumoniae; test: Inhibition of Klebsiella pneumoniae KP1081 NDM-1 assessed as minimum concentration of compound required to reduce the MIC of biapenem to 1 ug/ml
[14] = tested on: Pseudomonas aeruginosa; test: Inhibition of Pseudomonas aeruginosa PAM 1154 KPC-2 assessed as assessed as minimum potentiating concentration of compound needed to reduce the MIC of biapenem by 64 fold
[15] = Ratio of inhibition of Pseudomonas aeruginosa PAM 1032 KPC-2 assessed as minimum potentiating concentration of compound needed to reduce the MIC of biapenem by 64 fold to inhibition of Pseudomonas aeruginosa PAM 1154 KPC-2 assessed as assessed as minimum potentiating concentration of compound needed to reduce the MIC of biapenem by 64 fold
[16] = tested on: Pseudomonas aeruginosa; test: Inhibition of Pseudomonas aeruginosa PAM 1032 KPC-2 assessed as minimum potentiating concentration of compound needed to reduce the MIC of biapenem by 64 fold
[17] = tested on: Escherichia coli; test: Inhibition of Escherichia coli EC308 SHV-5 assessed as minimum concentration of compound needed to reduce the MIC of aztreonam to 4 ug/ml

| SMILES | MEC [1] | MEC [2] | MEC [3] | MEC [4] | MEC [5] | MEC [6] | MEC [7] | MEC [8] | MEC [9] | MEC [10] | MEC [11] | MEC [12] | MEC [13] | Activity [14] | Ratio [15] | Activity [16] | MEC [17] |
| --- | --- | --- | --- | --- | --- | --- | --- | --- | --- | --- | --- | --- | --- | --- | --- | --- | --- |
| COc1ccc2c(c1C(=O)O)OB(O)C(F)=C2 | > 20 µg/mL | 1.25 µg/mL | 1.25 µg/mL | 0.3 µg/mL | 1.25 µg/mL | 5 µg/mL | 2.5 µg/mL | 5 µg/mL | 2.5 µg/mL | 1.25 µg/mL | 1.25 µg/mL | 0.16 µg/mL | 5 µg/mL | – | – | – | – |
| O=C(CSC1CNC1)N[C@H]1Cc2ccc(F)c(C(=O)O)c2OB1O | – | – | – | – | – | – | – | – | – | – | – | – | – | 5 µg/mL | 1 | 5 µg/mL | – |
| COc1ccc2c(c1C(=O)O)OB(O)C1(CO)CC21 (centres undefined) | 0.16 µg/mL | 5 µg/mL | 5 µg/mL | 2.5 µg/mL | 5 µg/mL | 10 µg/mL | 2.5 µg/mL | 20 µg/mL | 2.5 µg/mL | 10 µg/mL | 5 µg/mL | 1.25 µg/mL | 0.6 µg/mL | – | – | – | – |
| CSCC(=O)N[C@H]1Cc2ccc(Sc3nncn3C)c(C(=O)O)c2OB1O | – | – | – | 5 µg/mL | – | – | – | > 20 µg/mL | – | 2.5 µg/mL | 2.5 µg/mL | 5 µg/mL | – | – | – | – | < 0.3 µg/mL |
| COc1ccc2c(c1C(=O)O)OB(O)C1(CC1)C2 | 5 µg/mL | > 20 µg/mL | > 20 µg/mL | 10 µg/mL | > 20 µg/mL | > 20 µg/mL | > 20 µg/mL | 10 µg/mL | > 20 µg/mL | > 20 µg/mL | > 20 µg/mL | 5 µg/mL | 10 µg/mL | – | – | – | – |
| O=C(CSC1CNC1)N[C@H]1Cc2cccc(C(=O)O)c2OB1O | – | – | – | – | – | – | – | – | – | – | – | – | – | 2.5 µg/mL | 1 | 2.5 µg/mL | – |
| CSCC(=O)N[C@H]1Cc2ccc(SC)c(C(=O)O)c2OB1O | – | – | – | 1.25 µg/mL | – | – | – | 20 µg/mL | – | 0.6 µg/mL | 1.25 µg/mL | 0.6 µg/mL | – | – | – | – | 0.04 µg/mL |
| COc1ccc2c(c1C(=O)O)OB(O)[C@H]1C[C@@H]21 | 0.3 µg/mL | 0.3 µg/mL | 0.6 µg/mL | 1.25 µg/mL | 0.3 µg/mL | 1.25 µg/mL | 0.6 µg/mL | 2.5 µg/mL | 20 µg/mL | 0.6 µg/mL | 0.6 µg/mL | 0.16 µg/mL | 0.6 µg/mL | – | – | – | – |
| O=C(O)c1nccc2c1OB(O)[C@@H]1C[C@H]21 | 0.3 µg/mL | 0.6 µg/mL | 0.3 µg/mL | 5 µg/mL | 0.6 µg/mL | 1.25 µg/mL | 0.3 µg/mL | 2.5 µg/mL | > 20 µg/mL | 2.5 µg/mL | 0.3 µg/mL | 0.6 µg/mL | 2.5 µg/mL | – | – | – | – |
| O=C(O)c1cccc2c1OB(O)[C@@H]1C[C@H]21 | 0.16 µg/mL | 0.3 µg/mL | 0.16 µg/mL | 0.3 µg/mL | 0.3 µg/mL | 10 µg/mL | 5 µg/mL | 0.6 µg/mL | 20 µg/mL | 0.6 µg/mL | 0.16 µg/mL | 0.16 µg/mL | 0.6 µg/mL | – | – | – | – |
| O=C(Cc1cccs1)N[C@H]1Cc2cccc(C(=O)O)c2OB1O | – | – | – | – | – | – | – | – | – | – | – | – | – | 2.5 µg/mL | 32 | 80 µg/mL | – |
| COc1ccc2c(c1C(=O)O)OB(O)[C@@H](NC(=O)Cc1cccs1)C2 | – | – | – | – | – | – | – | – | – | – | – | – | – | 5 µg/mL | 8 | 40 µg/mL | – |
| COc1ccc2c(c1C(=O)O)OB(O)C(CO)C2 (centres undefined) | > 20 µg/mL | > 20 µg/mL | > 20 µg/mL | 20 µg/mL | > 20 µg/mL | > 20 µg/mL | > 20 µg/mL | > 20 µg/mL | > 20 µg/mL | > 20 µg/mL | > 20 µg/mL | 10 µg/mL | > 20 µg/mL | – | – | – | – |
| COc1ccc2c(c1C(=O)O)OB(O)C=C2 | > 20 µg/mL | 20 µg/mL | 20 µg/mL | 10 µg/mL | 20 µg/mL | > 20 µg/mL | 20 µg/mL | 10 µg/mL | > 20 µg/mL | 10 µg/mL | 20 µg/mL | 2.5 µg/mL | > 20 µg/mL | – | – | – | – |
| CSCC(=O)N[C@H]1Cc2ccc(SCCO)c(C(=O)O)c2OB1O | – | – | – | 5 µg/mL | – | – | – | > 20 µg/mL | – | 1.25 µg/mL | 1.25 µg/mL | 2.5 µg/mL | – | – | – | – | 0.04 µg/mL |
